# From patent US20260224588A1, “BENZODIAZEPINONE-DERIVED INHIBITORS OF EGFR AND HER2” (The Research Foundation for the State University of New York, priority 2023, published 2026)
# Assays:
# Assay in all cases: KINOMEscan
# Format in all cases: binding
# Conditions in all cases: 1 μM of compound 4; read-out: POC
# CDKL2 = CDKL2 (Homo sapiens, UniProt Q92772)
# [1] = target: T1, RPS6KA5(Kin.Dom.2-C-terminal) (Homo sapiens, UniProt O75582)
# T1 construct: RPS6KA5(Kin.Dom.2-C-terminal); purchased Eurofins DiscoverX Corporation (KINOMEscan screening service)
# GSK3B = target: T2, GSK3B (Homo sapiens, UniProt P49841)
# T2 construct: purchased Eurofins DiscoverX Corporation
# RET(V804L) = target: T3, RET(V804L) (Homo sapiens, UniProt P07949, V804L)
# T3 construct: purchased Eurofins DiscoverX Corporation (KINOMEscan screening service)
# PIK3CA(H1047Y) = PIK3CA(H1047Y) (Homo sapiens, UniProt P42336, H1047Y)
# PIK3CA(H1047Y), sequence (P42336 whole entry H1047Y): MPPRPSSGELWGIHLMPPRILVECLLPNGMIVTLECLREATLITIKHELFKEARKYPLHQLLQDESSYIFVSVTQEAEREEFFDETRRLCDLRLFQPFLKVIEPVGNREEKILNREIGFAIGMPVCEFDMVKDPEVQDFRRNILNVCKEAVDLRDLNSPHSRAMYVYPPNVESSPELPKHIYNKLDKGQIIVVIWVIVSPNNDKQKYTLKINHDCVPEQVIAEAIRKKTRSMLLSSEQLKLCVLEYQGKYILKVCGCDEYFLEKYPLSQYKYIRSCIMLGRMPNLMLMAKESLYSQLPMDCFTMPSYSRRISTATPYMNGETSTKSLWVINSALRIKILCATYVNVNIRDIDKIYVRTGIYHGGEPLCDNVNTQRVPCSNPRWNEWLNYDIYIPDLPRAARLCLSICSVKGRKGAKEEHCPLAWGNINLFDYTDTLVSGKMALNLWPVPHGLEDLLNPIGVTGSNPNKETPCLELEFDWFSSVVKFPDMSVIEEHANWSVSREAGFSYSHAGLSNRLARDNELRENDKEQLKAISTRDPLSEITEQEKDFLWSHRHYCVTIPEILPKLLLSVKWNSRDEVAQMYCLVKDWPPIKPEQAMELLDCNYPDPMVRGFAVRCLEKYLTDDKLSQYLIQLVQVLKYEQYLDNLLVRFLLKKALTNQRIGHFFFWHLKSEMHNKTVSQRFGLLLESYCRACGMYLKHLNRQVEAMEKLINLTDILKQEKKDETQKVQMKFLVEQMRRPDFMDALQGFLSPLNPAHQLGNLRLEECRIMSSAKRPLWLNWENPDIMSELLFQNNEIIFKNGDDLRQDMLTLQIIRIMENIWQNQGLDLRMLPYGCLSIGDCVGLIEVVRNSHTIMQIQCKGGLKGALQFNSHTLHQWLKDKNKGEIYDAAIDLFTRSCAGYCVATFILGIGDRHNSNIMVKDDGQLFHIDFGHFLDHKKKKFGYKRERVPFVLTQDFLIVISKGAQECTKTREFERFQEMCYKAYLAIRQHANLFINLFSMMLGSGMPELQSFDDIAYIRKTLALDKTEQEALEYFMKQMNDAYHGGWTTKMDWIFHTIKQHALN
# CSNK1G2 = CSNK1G2 (Homo sapiens, UniProt P78368)
# CSNK1G2, sequence (P78368 whole entry): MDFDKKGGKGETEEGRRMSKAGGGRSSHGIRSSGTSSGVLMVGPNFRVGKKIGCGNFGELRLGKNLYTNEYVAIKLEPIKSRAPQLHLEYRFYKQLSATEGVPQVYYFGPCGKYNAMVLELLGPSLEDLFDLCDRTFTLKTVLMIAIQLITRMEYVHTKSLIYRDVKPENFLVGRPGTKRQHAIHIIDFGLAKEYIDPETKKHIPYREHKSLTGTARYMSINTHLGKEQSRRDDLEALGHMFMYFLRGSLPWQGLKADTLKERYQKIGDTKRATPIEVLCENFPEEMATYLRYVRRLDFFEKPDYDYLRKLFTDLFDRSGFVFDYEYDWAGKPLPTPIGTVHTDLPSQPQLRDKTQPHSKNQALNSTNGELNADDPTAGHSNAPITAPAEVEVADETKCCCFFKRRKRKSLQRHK
# PKAC-alpha = PKAC-alpha (Homo sapiens, UniProt P17612)
# [2] = target: JAK1(JH1domain-catalytic) (Homo sapiens, UniProt P23458)
# AMPK-alpha1 = AMPK-alpha1 (Homo sapiens, UniProt Q13131)
# PAK2 = target: T4, PAK2 (Homo sapiens, UniProt Q13177)
# T4 construct: purchased Eurofins DiscoverX Corporation (KINOMEscan)
# ALK(C1156Y) = ALK(C1156Y) (Homo sapiens, UniProt Q9UM73, C1156Y)
# MLK1 = MLK1 (Homo sapiens, UniProt P80192)
# OSR1 = target: T5, OSR1 (Homo sapiens, UniProt O95747)
# T5 construct: purchased Eurofins DiscoverX Corporation (KINOMEscan)
# MAP3K4 = MAP3K4 (Homo sapiens, UniProt Q9Y6R4)
# TAOK3 = target: T6, TAOK3 (Homo sapiens, UniProt Q9H2K8)
# T6 construct: purchased Eurofins DiscoverX Corporation
# EPHB2 = target: T7, EPHB2 (Homo sapiens, UniProt P29323)
# T7 construct: purchased Eurofins DiscoverX (KINOMEscan service)
# T7 sequence (P29323 19-1055): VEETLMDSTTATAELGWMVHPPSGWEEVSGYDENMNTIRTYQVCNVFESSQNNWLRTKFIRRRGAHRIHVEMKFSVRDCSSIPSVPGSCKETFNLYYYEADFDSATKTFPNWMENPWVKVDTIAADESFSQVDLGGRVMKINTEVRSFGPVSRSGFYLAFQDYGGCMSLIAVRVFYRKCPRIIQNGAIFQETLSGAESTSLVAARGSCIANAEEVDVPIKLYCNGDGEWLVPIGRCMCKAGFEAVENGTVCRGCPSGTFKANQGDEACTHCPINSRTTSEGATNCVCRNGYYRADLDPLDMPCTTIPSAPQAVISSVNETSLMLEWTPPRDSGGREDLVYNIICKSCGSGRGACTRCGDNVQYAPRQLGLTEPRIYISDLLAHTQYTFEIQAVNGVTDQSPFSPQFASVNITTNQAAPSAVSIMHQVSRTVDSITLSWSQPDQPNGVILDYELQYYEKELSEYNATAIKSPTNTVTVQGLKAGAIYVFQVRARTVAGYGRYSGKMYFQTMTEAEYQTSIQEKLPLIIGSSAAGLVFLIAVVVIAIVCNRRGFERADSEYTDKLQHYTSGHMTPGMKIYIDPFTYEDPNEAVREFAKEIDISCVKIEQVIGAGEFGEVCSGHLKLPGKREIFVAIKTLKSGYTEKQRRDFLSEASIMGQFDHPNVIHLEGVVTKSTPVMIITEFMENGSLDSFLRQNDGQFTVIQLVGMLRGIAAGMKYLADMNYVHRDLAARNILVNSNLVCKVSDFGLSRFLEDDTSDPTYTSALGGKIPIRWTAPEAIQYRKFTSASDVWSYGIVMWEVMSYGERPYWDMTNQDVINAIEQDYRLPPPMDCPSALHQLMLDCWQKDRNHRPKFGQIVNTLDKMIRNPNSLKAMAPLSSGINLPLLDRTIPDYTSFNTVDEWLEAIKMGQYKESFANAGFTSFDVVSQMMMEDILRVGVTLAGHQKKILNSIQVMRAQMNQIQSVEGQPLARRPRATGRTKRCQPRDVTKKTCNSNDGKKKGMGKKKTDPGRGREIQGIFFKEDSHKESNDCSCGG
# MAP4K4 = MAP4K4 (Homo sapiens, UniProt O95819)
# NEK4 = NEK4 (Homo sapiens, UniProt P51957)
# PLK4 = PLK4 (Homo sapiens, UniProt O00444)
# PLK4, sequence (O00444 whole entry): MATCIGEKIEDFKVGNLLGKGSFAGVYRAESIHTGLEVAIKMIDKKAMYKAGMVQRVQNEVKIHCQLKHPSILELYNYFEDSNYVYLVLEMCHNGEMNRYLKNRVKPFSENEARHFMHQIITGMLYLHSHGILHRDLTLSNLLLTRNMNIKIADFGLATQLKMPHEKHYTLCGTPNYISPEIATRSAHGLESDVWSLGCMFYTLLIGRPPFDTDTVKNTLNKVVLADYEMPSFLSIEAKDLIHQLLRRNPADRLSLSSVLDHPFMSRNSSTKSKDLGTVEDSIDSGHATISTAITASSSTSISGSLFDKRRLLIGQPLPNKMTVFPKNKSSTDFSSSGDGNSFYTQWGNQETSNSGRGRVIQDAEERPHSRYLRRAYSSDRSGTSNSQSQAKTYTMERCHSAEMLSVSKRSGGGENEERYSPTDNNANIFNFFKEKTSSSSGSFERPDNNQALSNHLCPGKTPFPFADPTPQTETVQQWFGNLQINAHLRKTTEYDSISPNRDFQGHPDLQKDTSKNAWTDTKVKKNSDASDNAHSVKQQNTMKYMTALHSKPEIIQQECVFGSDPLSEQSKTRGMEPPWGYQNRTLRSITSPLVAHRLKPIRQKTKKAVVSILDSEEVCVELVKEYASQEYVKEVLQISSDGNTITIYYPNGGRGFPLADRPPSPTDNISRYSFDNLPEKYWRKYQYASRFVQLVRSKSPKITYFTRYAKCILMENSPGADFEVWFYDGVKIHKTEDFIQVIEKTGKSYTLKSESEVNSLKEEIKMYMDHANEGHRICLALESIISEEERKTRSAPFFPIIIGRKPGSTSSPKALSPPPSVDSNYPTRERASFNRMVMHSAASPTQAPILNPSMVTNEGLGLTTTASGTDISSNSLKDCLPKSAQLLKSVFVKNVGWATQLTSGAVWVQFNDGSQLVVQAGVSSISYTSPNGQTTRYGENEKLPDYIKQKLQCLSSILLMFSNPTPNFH
# EGFR(G719C) = target: T8, EGFR(G719C) (Homo sapiens, UniProt P00533, G719C)
# T8 construct: purchased Eurofins DiscoverX (KINOMEscan service)
# MAP3K2 = MAP3K2 (Homo sapiens, UniProt Q9Y2U5)
# CDC2L1 = CDC2L1 (Homo sapiens, UniProt P21127)
# MET(Y1235D) = MET(Y1235D) (Homo sapiens, UniProt P08581, Y1235D)
# KIT = KIT (Homo sapiens, UniProt P10721)
# AXL = AXL (Homo sapiens, UniProt P30530)
# TAOK2 = target: T9, TAOK2 (Homo sapiens, UniProt Q9UL54)
# T9 construct: purchased Eurofins DiscoverX Corporation
# CSNK1G1 = CSNK1G1 (Homo sapiens, UniProt Q9HCP0)
# MYLK2 = MYLK2 (Homo sapiens, UniProt Q9H1R3)
# FLT3(D835Y) = target: T10, FLT3(D835Y) (Homo sapiens, UniProt P36888, D835Y)
# T10 construct: purchased Eurofins DiscoverX Corporation
# EPHA6 = target: T11, EPHA6 (Homo sapiens, UniProt Q9UF33)
# T11 construct: purchased Eurofins DiscoverX (KINOMEscan service)
# DMPK2 = DMPK2 (Homo sapiens, UniProt Q6DT37)
# LYN = LYN (Homo sapiens, UniProt P07948)
# CAMK1G = CAMK1G (Homo sapiens, UniProt Q96NX5)
# CAMK1G, sequence (Q96NX5 whole entry): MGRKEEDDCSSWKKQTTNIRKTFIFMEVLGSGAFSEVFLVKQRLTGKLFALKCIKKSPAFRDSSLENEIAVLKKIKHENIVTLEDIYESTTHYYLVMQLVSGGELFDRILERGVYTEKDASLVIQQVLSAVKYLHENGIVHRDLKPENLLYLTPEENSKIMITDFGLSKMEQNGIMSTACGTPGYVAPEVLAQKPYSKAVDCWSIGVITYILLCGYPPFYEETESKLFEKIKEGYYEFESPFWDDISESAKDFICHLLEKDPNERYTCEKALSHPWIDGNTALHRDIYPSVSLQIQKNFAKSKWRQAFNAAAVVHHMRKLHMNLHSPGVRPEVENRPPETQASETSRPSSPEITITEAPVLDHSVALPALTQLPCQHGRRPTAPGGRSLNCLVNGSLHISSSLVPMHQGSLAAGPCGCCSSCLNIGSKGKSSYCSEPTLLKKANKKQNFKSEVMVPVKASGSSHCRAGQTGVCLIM
# JNK3 = JNK3 (Homo sapiens, UniProt P53779)
# JNK3, sequence (P53779 whole entry): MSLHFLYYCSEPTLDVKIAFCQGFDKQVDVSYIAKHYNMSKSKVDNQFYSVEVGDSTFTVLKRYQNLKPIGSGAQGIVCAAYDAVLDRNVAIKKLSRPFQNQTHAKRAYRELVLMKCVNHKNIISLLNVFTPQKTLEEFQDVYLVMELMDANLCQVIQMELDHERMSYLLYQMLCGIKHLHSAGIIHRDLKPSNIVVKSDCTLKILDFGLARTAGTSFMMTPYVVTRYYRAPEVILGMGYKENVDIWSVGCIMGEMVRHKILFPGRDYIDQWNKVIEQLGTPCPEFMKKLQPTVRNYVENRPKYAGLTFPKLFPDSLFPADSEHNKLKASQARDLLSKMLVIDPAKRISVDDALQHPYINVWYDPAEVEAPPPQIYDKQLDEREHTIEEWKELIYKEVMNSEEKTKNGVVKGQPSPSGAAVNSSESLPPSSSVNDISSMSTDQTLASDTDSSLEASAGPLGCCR
# SRPK2 = target: T12, SRPK2 (Homo sapiens, UniProt P78362)
# T12 construct: purchased Eurofins DiscoverX (KINOMEscan service)
# PIK3CA(I800L) = PIK3CA(I800L) (Homo sapiens, UniProt P42336, I800L)
# [3] = target: T13, ABL1(E255K)-phosphorylated (Homo sapiens, UniProt P00519, E255K)
# T13 construct: purchased Eurofins DiscoverX Corporation
# ITK = ITK (Homo sapiens, UniProt Q08881)
# ITK, sequence (Q08881 whole entry): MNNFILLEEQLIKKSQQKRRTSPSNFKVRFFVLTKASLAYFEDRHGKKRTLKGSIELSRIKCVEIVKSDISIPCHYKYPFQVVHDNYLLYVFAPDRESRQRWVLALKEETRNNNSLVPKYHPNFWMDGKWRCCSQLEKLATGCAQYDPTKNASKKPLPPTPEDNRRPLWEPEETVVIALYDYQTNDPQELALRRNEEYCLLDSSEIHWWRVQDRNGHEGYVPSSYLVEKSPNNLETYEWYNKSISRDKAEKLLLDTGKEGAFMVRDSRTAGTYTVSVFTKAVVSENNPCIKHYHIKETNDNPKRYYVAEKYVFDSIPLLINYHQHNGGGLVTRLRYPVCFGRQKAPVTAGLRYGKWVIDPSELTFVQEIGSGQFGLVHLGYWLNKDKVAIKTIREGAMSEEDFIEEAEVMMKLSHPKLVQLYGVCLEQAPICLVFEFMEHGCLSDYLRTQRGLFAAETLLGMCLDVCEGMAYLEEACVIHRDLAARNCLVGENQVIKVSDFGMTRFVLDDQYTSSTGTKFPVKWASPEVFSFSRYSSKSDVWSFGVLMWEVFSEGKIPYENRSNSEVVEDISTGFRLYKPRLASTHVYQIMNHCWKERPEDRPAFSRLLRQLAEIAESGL
smiles,measurement,setting,value
"C=CC(=O)Nc1ccc(OC)c(Nc2cc(-c3[nH]c(CC)nc3-c3cccc(NC(=O)c4cccc5c4NC(=O)c4ccccc4N5)c3)ccn2)c1 [Compound 4, N-(3-(5-(2-((5-Acrylamido-2-methoxyphenyl)amino)pyridin-4-yl)-2-ethyl-1H-imidazol-4-yl)phenyl)-11-oxo-10,11-dihydro-5H-dibenzo[b,e][1,4]diazepine-9-carboxamide]",remaining binding at 1 µM,CDKL2,100%
same,remaining binding at 1 µM,[1],100%
same,remaining binding at 1 µM,GSK3B,100%
same,remaining binding at 1 µM,RET(V804L),99%
same,remaining binding at 1 µM,PIK3CA(H1047Y),66%
same,remaining binding at 1 µM,CSNK1G2,91%
same,remaining binding at 1 µM,PKAC-alpha,100%
same,remaining binding at 1 µM,[2],91%
same,remaining binding at 1 µM,AMPK-alpha1,81%
same,remaining binding at 1 µM,PAK2,100%
same,remaining binding at 1 µM,ALK(C1156Y),87%
same,remaining binding at 1 µM,MLK1,86%
same,remaining binding at 1 µM,OSR1,89%
same,remaining binding at 1 µM,MAP3K4,100%
same,remaining binding at 1 µM,TAOK3,95%
same,remaining binding at 1 µM,EPHB2,100%
same,remaining binding at 1 µM,MAP4K4,6.1%
same,remaining binding at 1 µM,NEK4,100%
same,remaining binding at 1 µM,PLK4,71%
same,remaining binding at 1 µM,EGFR(G719C),6.5%
same,remaining binding at 1 µM,MAP3K2,100%
same,remaining binding at 1 µM,CDC2L1,100%
same,remaining binding at 1 µM,MET(Y1235D),97%
same,remaining binding at 1 µM,KIT,100%
same,remaining binding at 1 µM,AXL,98%
same,remaining binding at 1 µM,TAOK2,100%
same,remaining binding at 1 µM,CSNK1G1,93%
same,remaining binding at 1 µM,MYLK2,84%
same,remaining binding at 1 µM,FLT3(D835Y),96%
same,remaining binding at 1 µM,EPHA6,90%
same,remaining binding at 1 µM,DMPK2,0%
same,remaining binding at 1 µM,LYN,22%
same,remaining binding at 1 µM,CAMK1G,100%
same,remaining binding at 1 µM,JNK3,53%
same,remaining binding at 1 µM,SRPK2,100%
same,remaining binding at 1 µM,PIK3CA(I800L),100%
same,remaining binding at 1 µM,[3],65%
same,remaining binding at 1 µM,ITK,87%
